System: citrus canker microbe (Xanthomonas axonopodis pv citri)
Assay: Nursery experiment: compositions sprayed on fruit bearing citrus trees inoculated with citrus canker microbe
Type: in vivo
Protocol: In a nursery experiment, three antimicrobial compositions and a control composition were tested for activity against citrus canker microbe. The compositions were sprayed on fruit bearing citrus trees that had been inoculated with citrus canker microbe (Xanthomonas axonopodis pv citri). In these experiments composition A was the metal antimicrobial agent and poly(hexamethyl biguanide) composition and composition B was this composition plus copper ion.
The composition of metal antimicrobial agent and poly(hexamethyl biguanide) as used in compositions A and B included: water ([…]), poly(hexamethyl biguanide) (0.6 wt-%), and silver iodide (0.02 wt-%) Triton X-100 (2 wt-%), Tectronic 1107 (1.2 wt-%), 1-methyl-2-pyrrolidinone (0.3 wt-%), and ethanol (2.8 wt-%).
The antimicrobial composition was applied periodically and the plants were challenged with citrus canker microbe.

Substance: Copper
- % OF HEALTHY LEAVES (Date 1): 82%
- % OF LEAVES WITH CANKER (Date 1): 22.2%
- % OF HEALTHY LEAVES (Date 2): 80.7%
- % OF LEAVES WITH CANKER (Date 2): 18%
- % OF HEALTHY LEAVES (Date 4): 84.7%
- % OF LEAVES WITH CANKER (Date 4): 17.59%

From patent publication US20060147549A1, “Methods and compositions for reducing population of plant pathogen” (priority 2004, published 2006)
